In patent publication US11066369B2, “N-(pyridin-2-yl)pyridine-sulfonamide derivatives and their use in the treatment of disease” (Novartis AG, priority 2016, dated 2021):

Molecular target: T1, horseradish peroxidase (HRP) tagged delF508-CFTR (Homo sapiens, UniProt P13569, DEL508-508)
T1 construct: expressed in transfected cells
Experiment: Measurement of delF508-CFTR-HRP surface expression in CFBE41o- cells;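 for DelF508-CFTR-HRP Amax %: percent efficacy relative to reference corrector lumacaftor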
Type: cell-based
Details: delF508-CFTR-HRP surface expression, CFBE41o- cells; for Emax: read-out: DelF508-CFTR-HRP Amax %; for EC50: read-out: DelF508-CFTR-HRP EC50
Source text: Measurement of delF508-CFTR-HRP Surface Expression in CFBE41o-Cells
This assay quantifies the cell surface expressions of the mutant CFTR channel using an extracellular HRP tag.
A cellular assay was developed to measure surface expression of horseradish peroxidase (HRP) tagged delF508-CFTR in the human bronchial epithelial immortalized CFBE41o-cell line (Phuan, P. W., et al, (2014) Molecular Pharmacology 86:42-51). Specifically, the HRP sequence was inserted into the fourth extracellular loop of delF508-CFTR and stably expressed in CFBE41o-cells. Cells were seeded in 384 well plate at a density of 5000 cells/well and incubated at 37° C. for 12 to 24 hours in medium (Gibco MEM #11095, 10% FBS, 10 mM HEPES, […], 200 μg/mL G418, 3 μg/mL Puromycin). The delF508-CFTR-HRP expression was induced with 500 ng/mL doxycycline (Sigma D-9891, dissolved in H2O and sterile filtered) in medium and the cells were incubated at 37° C. for 48h. Old medium was removed and fresh medium was added containing 500 ng/mL doxycycline and unknown test compound at required test concentration in DMSO, not exceeding 0.5% final DMSO concentration. The highest concentration tested was 10 μM with a 10-point concentration response curve using a 3-fold dilution. After addition of compounds, the cells were incubated for 24h at 37° C. On the final day, cells were washed four times in PBS containing 1 mM MgCl2 and 0.1 mM CaCl2. HRP-Substrate (SuperSignal ELISA Pico, Fisher #37069) 20 μl/well was added and the luminescence signal was determined (Viewlux, Perkin Elmer). Light was emitted upon addition of exogenous HRP-Substrate only when delF508-CFTR-HRP reached the cell surface and the HRP tag was accessible to the HRP-Substrate (note: HRP-Substrate cannot cross the lipid bilayer to reach delF508-CFTR-HRP misfolded within the cell).
The median activity for the lowest concentration of the compounds on each assay plate was calculated and this value was used to normalize the signal for each well on the respective plate. Three replicates at each concentrations for every compound were run to determine one EC50. The median value was determined and used to calculate compound activities as described below. Effective half maximal values (EC50) were calculated for each compound by performing logistic regression on measured dose-response data points using the equation:
[formula] where “Y” is the observed activity, “Bottom” is the lowest observed value, “Top” is the highest observed value, and the “Hill coefficient” gives the largest absolute value of the slope. The curve fitting is carried out by a curve fitting program implemented at GNF using Matlab (Mathworks).
The dose response curves also were used to calculate Fold Change (FC) using the equation: […]
Compound efficacy relative to the reference compound 3-(6-(1-(2,2-difluorobenzo[d][1,3]dioxol-5-yl)cyclopropane-1-carboxamido)-3-methylpyridin-2-yl)benzoic acid was determined using the following formula: […]

T1 sequence (P13569 with tags, fused parts or gaps DEL508-508): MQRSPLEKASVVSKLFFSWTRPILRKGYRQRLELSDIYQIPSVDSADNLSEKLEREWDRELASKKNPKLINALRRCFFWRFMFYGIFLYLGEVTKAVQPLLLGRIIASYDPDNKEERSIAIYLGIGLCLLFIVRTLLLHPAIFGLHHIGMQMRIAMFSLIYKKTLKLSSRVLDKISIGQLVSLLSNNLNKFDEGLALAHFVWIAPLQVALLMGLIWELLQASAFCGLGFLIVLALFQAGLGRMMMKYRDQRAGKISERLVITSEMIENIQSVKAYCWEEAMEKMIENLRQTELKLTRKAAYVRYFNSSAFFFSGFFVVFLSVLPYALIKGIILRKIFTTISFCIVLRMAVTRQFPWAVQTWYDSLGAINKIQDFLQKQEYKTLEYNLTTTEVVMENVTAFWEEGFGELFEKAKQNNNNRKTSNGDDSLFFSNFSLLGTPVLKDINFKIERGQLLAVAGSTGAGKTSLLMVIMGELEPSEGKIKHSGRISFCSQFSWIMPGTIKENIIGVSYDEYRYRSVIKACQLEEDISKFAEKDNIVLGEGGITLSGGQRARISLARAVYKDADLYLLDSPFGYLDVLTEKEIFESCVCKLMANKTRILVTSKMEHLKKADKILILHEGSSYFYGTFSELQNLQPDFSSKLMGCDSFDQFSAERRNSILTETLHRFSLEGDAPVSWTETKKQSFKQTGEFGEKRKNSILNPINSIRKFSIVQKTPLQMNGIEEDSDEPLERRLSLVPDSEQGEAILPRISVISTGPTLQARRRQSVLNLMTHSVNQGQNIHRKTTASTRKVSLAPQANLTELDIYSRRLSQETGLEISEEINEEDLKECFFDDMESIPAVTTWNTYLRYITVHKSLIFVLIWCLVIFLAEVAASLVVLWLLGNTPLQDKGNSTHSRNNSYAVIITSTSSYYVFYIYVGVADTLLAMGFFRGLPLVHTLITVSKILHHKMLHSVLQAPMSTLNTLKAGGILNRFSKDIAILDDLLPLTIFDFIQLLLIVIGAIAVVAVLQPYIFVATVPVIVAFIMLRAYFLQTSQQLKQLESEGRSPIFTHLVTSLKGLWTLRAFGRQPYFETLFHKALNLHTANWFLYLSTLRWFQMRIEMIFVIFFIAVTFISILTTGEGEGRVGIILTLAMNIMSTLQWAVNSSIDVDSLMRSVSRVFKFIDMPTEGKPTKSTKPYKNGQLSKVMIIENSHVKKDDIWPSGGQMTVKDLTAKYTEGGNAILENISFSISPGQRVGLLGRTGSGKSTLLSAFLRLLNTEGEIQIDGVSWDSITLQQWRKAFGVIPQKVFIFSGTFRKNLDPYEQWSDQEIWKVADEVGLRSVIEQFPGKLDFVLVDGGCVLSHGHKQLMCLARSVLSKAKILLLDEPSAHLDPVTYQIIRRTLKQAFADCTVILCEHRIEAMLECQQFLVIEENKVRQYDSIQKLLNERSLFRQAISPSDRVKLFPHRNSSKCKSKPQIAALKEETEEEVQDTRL

Row | Emax [%] | EC50 [µM] | SMILES
1 | 499 | 1.76 | [2H]C([2H])([2H])c1ccccc1-c1nc(NS(=O)(=O)c2cccc(N)n2)ccc1Cl [Example 20, 6-amino-N-(5-chloro-6-(2-(methyl-d3)phenyl)pyridin-2-yl)pyridine-2-sulfonamide]
2 | 493 | 1.36 | Nc1cccc(S(=O)(=O)Nc2ccc(Cl)c(-c3cc(F)ccc3C3CC3)n2)n1 [Example 21, 6-amino-N-(5-chloro-6-(2-cyclopropyl-5-fluorophenyl)pyridin-2-yl)pyridine-2-sulfonamide]
3 | 490 | 1.62 | Cc1ccccc1-c1nc(NS(=O)(=O)c2cccc(N)n2)cc(C(F)(F)F)c1Cl [Example 22, 6-amino-N-(5-chloro-6-(o-tolyl)-4-(trifluoromethyl)pyridin-2-yl)pyridine-2-sulfonamide]
4 | 486 | 1.88 | Cc1ccccc1-c1nc(NS(=O)(=O)c2cccc(N)n2)ccc1Br [Example 23, 6-amino-N-(5-bromo-6-(o-tolyl)pyridin-2-yl)pyridine-2-sulfonamide]
5 | 485 | 1.46 | Nc1cccc(S(=O)(=O)Nc2ccc(Cl)c(-c3ccccc3Cl)n2)n1 [Example 24, 6-amino-N-(5-chloro-6-(2-chlorophenyl)pyridin-2-yl)pyridine-2-sulfonamide]
6 | 450 | 2.2 | [2H]C([2H])([2H])c1ccccc1-c1nc(NS(=O)(=O)c2ccnc(N)c2)ccc1Cl [Example 26, 2-amino-N-(5-chloro-6-(2-(methyl-d3)phenyl)pyridin-2-yl)pyridine-4-sulfonamide]
7 | 430 | 1.72 | Nc1cccc(S(=O)(=O)Nc2ccc(Cl)c(-c3ccc(F)cc3C3CC3)n2)n1 [Example 27, 6-amino-N-(5-chloro-6-(2-cyclopropyl-4-fluorophenyl)pyridin-2-yl)pyridine-2-sulfonamide]
8 | 429 | 1.08 | CCc1ccccc1-c1nc(NS(=O)(=O)c2cccc(N)n2)ccc1Cl [Example 29, 6-amino-N-(5-chloro-6-(2-ethylphenyl)pyridin-2-yl)pyridine-2-sulfonamide]
9 | 421 | 1.7 | Cc1cc(F)cc(C)c1-c1nc(NS(=O)(=O)c2cccc(N)n2)ccc1Cl [Example 30, 6-amino-N-(5-chloro-6-(4-fluoro-2,6-dimethylphenyl)pyridin-2-yl)pyridine-2-sulfonamide]
10 | 418 | 1.32 | Cc1cccc(F)c1-c1nc(NS(=O)(=O)c2cccc(N)n2)ccc1Cl [Example 31, 6-amino-N-(5-chloro-6-(2-fluoro-6-methylphenyl)pyridin-2-yl)pyridine-2-sulfonamide]
11 | 412 | 1.64 | Cc1cc(C)c(-c2nc(NS(=O)(=O)c3cccc(N)n3)ccc2Cl)c(C)c1 [Example 32, 6-amino-N-(5-chloro-6-mesitylpyridin-2-yl)pyridine-2-sulfonamide]
12 | 404 | 2.2 | Cc1ccccc1-c1nc(NS(=O)(=O)c2nc(N)ccc2F)ccc1Cl [Example 33, 6-amino-N-(5-chloro-6-(o-tolyl)pyridin-2-yl)-3-fluoropyridine-2-sulfonamide]
13 | 398 | 2.11 | CC(C)c1ccccc1-c1nc(NS(=O)(=O)c2cccc(N)n2)ccc1F [Example 35, 6-amino-N-(5-fluoro-6-(2-isopropylphenyl)pyridin-2-yl)pyridine-2-sulfonamide]
14 | 386 | 2.29 | Cc1cc(F)ccc1-c1nc(NS(=O)(=O)c2cccc(N)n2)ccc1Cl [Example 37, 6-amino-N-(5-chloro-6-(4-fluoro-2-methylphenyl)pyridin-2-yl)pyridine-2-sulfonamide]
15 | 376 | 2 | Cc1ccc(Cl)c(-c2nc(NS(=O)(=O)c3cccc(N)n3)ccc2Cl)c1F [Example 38, 6-amino-N-(5-chloro-6-(6-chloro-2-fluoro-3-methylphenyl)pyridin-2-yl)pyridine-2-sulfonamide]
16 | 374 | 1.9 | Nc1cccc(S(=O)(=O)Nc2ccc(Cl)c(-c3c(F)cccc3Cl)n2)n1 [Example 39, 6-amino-N-(5-chloro-6-(2-chloro-6-fluorophenyl)pyridin-2-yl)pyridine-2-sulfonamide]
17 | 373 | 2.36 | Cc1ccccc1-c1nc(NS(=O)(=O)c2ccc(N)nc2)ccc1Cl [Example 40, 6-amino-N-(5-chloro-6-(o-tolyl)pyridin-2-yl)pyridine-3-sulfonamide]
18 | 345 | 1.24 | CC(C)c1ccccc1-c1nc(NS(=O)(=O)c2ccc(N)nc2)ccc1Cl [Example 45, 6-amino-N-(5-chloro-6-(2-isopropylphenyl)pyridin-2-yl)pyridine-3-sulfonamide]
19 | 339 | 1.95 | Cc1ccc(F)cc1-c1nc(NS(=O)(=O)c2ccnc(N)c2)ccc1Cl [Example 46, 2-amino-N-(5-chloro-6-(5-fluoro-2-methylphenyl)pyridin-2-yl)pyridine-4-sulfonamide]
20 | 335 | 1.4 | Cc1cccc(C)c1-c1nc(NS(=O)(=O)c2ccc(N)nc2)ccc1Cl [Example 47, 6-amino-N-(5-chloro-6-(2,6-dimethylphenyl)pyridin-2-yl)pyridine-3-sulfonamide]
21 | 334 | 2.33 | CC(F)(F)c1ccccc1-c1nc(NS(=O)(=O)c2cccc(N)n2)ccc1Cl [Example 48, 6-amino-N-(5-chloro-6-(2-(1,1-difluoroethyl)phenyl)pyridin-2-yl)pyridine-2-sulfonamide]
22 | 333 | 3.05 | Cc1ccc(C(F)(F)F)cc1-c1nc(NS(=O)(=O)c2ccnc(N)c2)ccc1Cl [Example 49, 2-amino-N-(5-chloro-6-(2-methyl-5-(trifluoromethyl)phenyl)pyridin-2-yl)pyridine-4-sulfonamide]
23 | 332 | 0.683 | CC(C)c1ccccc1-c1nc(NS(=O)(=O)c2cccc(N)n2)ccc1Cl [Example 50, 6-amino-N-(5-chloro-6-(2-isopropylphenyl)pyridin-2-yl)pyridine-2-sulfonamide]
24 | 332 | 1.98 | Cc1ccc(C(F)(F)F)cc1-c1nc(NS(=O)(=O)c2cccc(N)n2)ccc1Cl [Example 51, 6-amino-N-(5-chloro-6-(2-methyl-5-(trifluoromethyl)phenyl)pyridin-2-yl)pyridine-2-sulfonamide]
25 | 327 | 1.38 | Nc1cccc(S(=O)(=O)Nc2ccc(Cl)c(-c3c(Cl)cccc3C(F)(F)F)n2)n1 [Example 52, 6-amino-N-(5-chloro-6-(2-chloro-6-(trifluoromethyl)phenyl)pyridin-2-yl)pyridine-2-sulfonamide]
26 | 325 | 1.84 | Cc1cccc(C(F)(F)F)c1-c1nc(NS(=O)(=O)c2cccc(N)n2)ccc1Cl [Example 53, 6-amino-N-(5-chloro-6-(2-methyl-6-(trifluoromethyl)phenyl)pyridin-2-yl)pyridine-2-sulfonamide]
27 | 305 | 2.35 | Nc1ccc(S(=O)(=O)Nc2ccc(Cl)c(-c3ccccc3C3CC3)n2)cn1 [Example 54, 6-amino-N-(5-chloro-6-(2-cyclopropylphenyl)pyridin-2-yl)pyridine-3-sulfonamide]
28 | 270 | 1.78 | Cc1ccc(F)c(-c2nc(NS(=O)(=O)c3cccc(N)n3)ccc2Cl)c1Cl [Example 58, 6-amino-N-(5-chloro-6-(2-chloro-6-fluoro-3-methylphenyl)pyridin-2-yl)pyridine-2-sulfonamide]
29 | 258 | 1.1 | Nc1cccc(S(=O)(=O)Nc2ccc(Cl)c(-c3ccccc3OC(F)(F)F)n2)n1 [Example 59, 6-amino-N-(5-chloro-6-(2-(trifluoromethoxy)phenyl)pyridin-2-yl)pyridine-2-sulfonamide]
30 | 253 | 2.98 | Cc1cccc(F)c1-c1nc(NS(=O)(=O)c2ccc(N)nc2)ccc1Cl [Example 60, 6-amino-N-(5-chloro-6-(2-fluoro-6-methylphenyl)pyridin-2-yl)pyridine-3-sulfonamide]
